Entries after “also recorded” stand apart in the source; their conditions may differ. Read-outs that look alike come from different tables or passages of the source.
Columns and labels:
[1] = test system: 5′-TGCTGCA-3′ (the HIV-1 target sequence); assay type: binding
[2] = test system: 5′-TCGTCGA-3′ (reversed orientation match site); assay type: binding
[3] = test system: 5′-AGTACT-3′ site adjacent to the LEF-1 binding site; test: DNase footprint titration on HIV-1 enhancer/promoter fragment; settings: mismatch polyamide
Description: White, S., Baird, E. E. & Dervan, P. B. describes the pairing rules for recognition in the minor groove of DNA by pyrrole-imidazole polyamides. […] Labeled DNA was incubated with polyamide (45 minutes) and digested with DNase I under single-hit conditions.
(§1) Regions of polyamide protection were determined by analysis of the digestion products on a 6% denaturing polyacrylamide sequencing gel. Storage phosphorimage analysis of the data was used to obtain dissociation constants for the binding reactions (using Kodak Storage Phosphor Screens and a Molecular Dynamics SF PhosphorImager). Recombinant human TBP (rhTBP) was obtained from Promega and was used in footprinting and gel mobility shift experiments as recommended. The reaction mixtures also contained 100 ng of poly dG-poly dC per 10 μL gel shift reaction or 50 μL footprinting reaction. For gel mobility shift assays, 6% polyacrylamide gels (20:1, acrylamide to bisacrylamide) contained 44 mM Tris-borate, pH 8.3, 1 mM EDTA, 4 nM MgCl2 and 0.02% (v/v) NP-40. The same buffer was used for electrophoresis of 1 mm thick gels at 15 volts/cm for 2 hours at 4° C.

[4] = test system: HIV-1 enhancer/promoter restriction fragment; test: DNase footprint titration on HIV-1 enhancer/promoter fragment, other sites; assay type: binding; settings: mismatch polyamide, 1-60 nM
Text: White, S., Baird, E. E. & Dervan, P. B. describes the pairing rules for recognition in the minor groove of DNA by pyrrole-imidazole polyamides. Chem. & Biol. 4, 569-578 (1997); Swalley, S. E., Baird, E. E. & Dervan, P. B. describe the sequence specificity of the β/β pairing Chem Eur. J. 3, 1600 (1997). […] For DNase I footprinting a 400-bp restriction fragment containing the HIV-1 enhancer and promoter regions was isolated from pHIV LTR-CAT plasmid DNA (obtained from Dr. K. A. Jones of The Salk Institute, La Jolla, Calif.) (P. L. Sheridan et al., describe the sequence composition of the plasmid pHIV LTR-CAT Genes Dev. 9, 2090 (1995)). Labeled DNA was incubated with polyamide (45 minutes) and digested with DNase I under single-hit conditions.
as §1, with “For gel mobility shift assays, 6% polyacrylamide gels (20:1, acrylamide to bisacrylamide) contained 44 mM Tris-borate, pH 8.3, 1 mM EDTA, 4 nM MgCl2 and 0.02% (v/v) NP-40. The same buffer was used for electrophoresis of 1 mm thick gels at 15 volts/cm for 2 hours at 4° C.” left out

[5] = test system: HIV-1 promoter (LEF-1-activated transcription); test: HIV-1 transcription in vitro, H9 cell extract supplemented with HeLa nuclear extract; assay type: biochemical; settings: mismatch polyamide
Text: Based on the-results described above, it was expected that polyamide inhibition of LEF-1 binding would inhibit LEF-1-dependent transcription in an appropriate in vitro assay system. […] The H9 cell extract was supplemented with the HeLa cell-derived nuclear extract in order to obtain high levels of transcription. The H9 cell extract stimulates HIV-1 transcription ˜2.5 to 3-fold over the level of transcription observed with the HeLa extract alone and immunodepletion of LEF-1 protein from the H9 extract abolishes this activated transcription.
The effects of polyamides 1 and 2 on HIV-1 transcription were tested in an in vitro transcription assay with a HeLa cell nuclear extract (FIG. 21A). The effects of the polyamides on basal transcription by RNA polymerase II was monitored with a nuclear extract prepared from HeLa cells (J. D. Dignam, P. L. Martin, B. S. Shastry, R. G. Roeder, Describe eukaryotic gene transcription with purified components Meth. Enzymol. 101, 582 (1983)). […] Whole cell extracts of H9 cells in log phase growth were prepared by hypotonic lysis and contained 20 mg/ml protein, as determined by the Bradford reaction. […]
The effects of polyamides 3 and 4 on HIV-1 transcription in an in vitro system consisting of a cell-free extract prepared from cultured human lymphoid H9 cells supplemented with HeLa cell extract were determined. […]

For `CN(C)CCCNC(=O)CCNC(=O)c1cc(NC(=O)c2nc(NC(=O)CCNC(=O)c3cc(NC(=O)c4nc(NC(=O)CCCNC(=O)c5cc(NC(=O)c6nc(NC(=O)CCNC(=O)c7cc(NC(=O)c8nccn8C)cn7C)cn6C)cn5C)cn4C)cn3C)cn2C)cn1C` [polyamide 4, ImPy-β-ImPy-γ-ImPy-β-ImPy-β-Dp], which “Equilibrium association constants, 5′-aTGCTGCA-3′” value (from here on “Equilibrium association constants”) ([1]; Buffer A, 24° C.) is on record?
Its value is 1.5 × 10^10 (0.3) M^a.

And the “Equilibrium association constants” value ([1]; Buffer A, 37° C.)?
Its value is 8.4 × 10^9 (2.3) M^a.

What about the “Equilibrium association constants” value ([1]; Buffer B (140 mM KCl, 10 mM NaCl, 1 mM MgCl2, 1 mM spermine pH 7.2), 24° C.) of the same compound?
Its value is 1.9 × 10^10 (0.6) M^a.

And the “Equilibrium association constants” value ([1]; Buffer B, 37° C.)?
The value was 1.1 × 10^10 (0.2) M^a.

And the “fold higher affinity relative to unlinked analog” value ([1]; polyamide 4 vs 8)?
Its value is about 6000 fold.

What about the “fold lower affinity for 5′-TCGTCGA-3′ than for 5′-TGCTGCA-3′” value [2] of the same compound?
The value was about 10 fold.

What about the “fold reduced affinity for the 5′-AGTACT-3′ sequence” value [3] of the same compound?
The value was over 100 fold.

What about the “binding to the HIV-1 enhancer/promoter fragment” value [4] of the same compound?
Its value is “failed to detect any high affinity sites; also recorded: does not bind”.

What about the “inhibition of HIV-1 transcription” value [5] of the same compound?
Its value is “fails to inhibit”.

Reference: patent publication US6660255B1, “Inhibition of gene transcription by polyamide DNA-binding ligands” (California Institute of Technology, priority 1997, dated 2003)
